IC50 data for eleven compounds are collected here from patent US11845748B2, “Bicyclic pyridine N-oxide derivatives useful as a factor XIa inhibitors” (Janssen Pharmaceutica NV, priority 2021, dated 2023).

Where only a bound is given, the exact number is not on record here.

Experiment [1] concerns the target Factor XIa (Homo sapiens, UniProt P03951). Put plainly: Factor XIa inhibition assay utilizing a fluorophore-quencher pair peptide substrate (FLINT). The format is biochemical. The settings on record: kinetic reads at 5 min intervals over 30 min; 30 min preincubation; 5Fam-KLTRAETV-K5Tamra substrate; read-out: FXIa (KIN) IC50. From the text:
Biological Example 1: Factor XIa Inhibition Assay Utilizing a Fluorophore-Quencher Pair Peptide Substrate
A fluorescence intensity (FLINT) based assay was used to monitor inhibition of Factor XIa. The peptide substrate, 5Fam-KLTRAETV-K5Tamra (purchased from New England Peptide) was chosen based on the […]. Conversion of zymogen […]. The custom peptide used in this assay was based on the Arg146 cleavage site of FXI. The peptide substrate was designed with a fluorophore-quencher pair, where the fluorescence is quenched until FXIa cleaves the 8-mer peptide after the Arg residue. The substrate KM was fit to a substrate inhibition model whereby kcat=0.86 s^−1, KM=12.4 μM, Ki=61.6 μM with an enzymatic efficiency, and kcat/KM=69523 M^−1s^−1.
The Factor XIa FLINT assay was used with the following 5Fam-KLTRAETV-K5Tamra assay buffer: 50 mM Tris, pH 7.5, 100 mM NaCl, 5 mM CaCl2, 0.1 mg/mL BSA, 0.03% CHAPS. Assay buffer was prepared by mixing all ingredients fresh. 5Fam-KLTRAETV-K5Tamra peptide substrate was first prepared at 10 mM in 100% DMSO, then diluted to 3 mM in 100% DMSO. Assay buffer was then added directly to the 3 mM stock of substrate to prepare the 30 μM 2× working concentration (15 μM final concentration). The 2× Factor XIa stock solution was prepared by diluting 6.562 μM stock in 1× assay buffer for a 200 pM working stock solution (100 pM final concentration).
Test compound(s) were run in an 11-point, 3-fold serial dilution with a final top compound concentration of 100 nM. Final DMSO in assay was 2%. FXIa was preincubated with compound for 30-minutes and then substrate was added to initiate the reaction. The assay was run with either end point (EP) reads at 30 min or kinetic (KIN) reads at 5 min intervals over 30 minutes. The time course was linear using 100 μM FXIa greater than 30 minutes. More specifically, the assay was run as follows: • 100 nL of 0.01 mM test compound was dispensed into black 384-well non-binding Greiner BioOne 784900 plate for 0.1 μM final concentration; • 5 μL of 1× assay buffer was dispensed to column 24 (low control) and 5 μL 2× Factor XIa solution was dispensed to columns 1-23 (column 23 high control); • the plate was centrifuged with a “cover” plate at 500 rpm for 1 min the plate was pre-incubated for 30 minutes at room temperature with plate covered; • 5 μL of 2× 5Fam-KLTRAETV-K5Tamra peptide substrate was dispensed into the entire plate, columns 1-24; • the plate was centrifuged with a “cover” plate at 500 rpm for 1 min; • the plate was read monitoring fluorescence intensity on the BMG PHERAStar at room temperature, using fluorescence module 485 nm/520 nm.
Percent inhibition (IC50) curves were generated per compound tested, and data was analyzed using a 4-parameter logistic fit using GeneData Screener. The relative fluorescence unit (RFU) values were normalized to percent inhibition using the following equation: % inhibition=((HC−LC)−(compound−LC)/(HC−LC))*100 where LC—low control=mean signal of no Factor XIa or 100% inhibition of Factor XIa; HC—high control=mean signal of Factor XIa+5Fam-KLTRAETV-K5Tamra peptide substrate with DMSO only.
(§1) An 11-point dose response curve for the test compound(s) was generated using GENDATA to determine IC50 value based on the following equation: Y=Bottom+(Top−Bottom)/(1+10^((log IC50−X)*HillSlope))
where Y is the % inhibition in the presence of X inhibitor concentration, Top=high control=mean signal of Factor XIa+5Fam-KLTRAETV-K5Tamra peptide substrate with DMSO only; Bottom=low control−mean signal of no Factor XIa or 100% inhibition of Factor XIa; HillSlope—Hill coefficient; and IC50=concentration of compound with 50% inhibition in relation to top/high control. […]

For experiment [2], the target named is human plasma kallikrein (Homo sapiens, UniProt P03952). Briefly: Kallikrein inhibition assay utilizing a quenched AMC peptide substrate (FLINT). The format is biochemical. The settings on record: kinetic reads at 5 min intervals over 30 min; 30 min preincubation; Z-Gly-Pro-Arg-AMC substrate; read-out: Kallikrein (KIN) IC50. As to the method:
Biological Example 2: Kallikrein Inhibition Assay Utilizing a Quenched AMC Peptide Substrate
A fluorescence intensity (FLINT) based assay was used to monitor inhibition of human plasma kallikrein. The peptide substrate, Z-Gly-Pro-Arg-AMC (Purchased from Bachem; Catalog #I-1150) was chosen based on its relatively low KM for kallikrein which enables running the assay at lower substrate concentrations to control background fluorescence. The kinetic parameters for this substrate were determined by fitting titration data to the Michaelis-Menten equation yielding a KM=40 μM, kcat=0.76 s^−1, and kcat/KM=18932 M^−1s^−1.
The Kallikrein FLINT assay was used with the following Z-Gly-Pro-Arg-AMC assay buffer: 50 mM Tris, pH 7.5, 100 mM NaCl, 5 mM CaCl2, 0.1 mg/mL BSA, 0.03% CHAPS. Assay buffer was prepared by mixing all ingredients fresh. 2× Z-Gly-Pro-Arg-AMC peptide substrate was prepared by diluting 10 mM stock into 1× assay buffer for a 100 μM working concentration (50 μM final concentration). The 2× kallikrein stock solution was prepared by diluting 14.76 μM stock in 1× assay buffer for a 4 nM working stock solution (2 nM final concentration).
Test compound(s) were run in an 11-point, 3-fold serial dilution with a final top compound concentration of 1 μM. Final DMSO in assay was 2%. Plasma kallikrein was pre-incubated for 30-minute with compound and then 50 μM substrate was added to initiate the reaction. The assay was run with kinetic (KIN) reads at 5 min intervals over 30 minutes. The time course was linear using 2 nM kallikrein greater than 30 minutes. More specifically, the assay was run as follows: • 100 nL of 0.1 mM test compound was dispensed into black 384-well non-binding Greiner BioOne 784900 plate for 1 μM final concentration; • 5 μL of 1× assay buffer was dispensed to columns 24 (low control) and 5 μL 2× human kallikrein enzyme solution was dispensed to columns 1-23 (column 23 high control); • the plate was centrifuged with a “cover” plate at 500 rpm for 1 min the plate was pre-incubated for 30 minutes at room temperature with plate covered; • 5 μL of 2× Z-Gly-Pro-Arg-AMC peptide substrate was dispensed into the entire plate, columns 1-24; • the plate was centrifuged with a “cover” plate at 500 rpm for 1 min; • the plate was read monitoring fluorescence intensity on the BMG PHERAStar at room temperature, using fluorescence module 340 nm/440 nm.
Percent inhibition (IC50) curves were generated per compound tested, and data was analyzed using a 4-parameter logistic fit using GeneData Screener. The relative fluorescence unit (RFU) values were normalized to percent inhibition using the following equation: % inhibition=((HC−LC)−(compound−LC)/(HC−LC))*100
where LC—low control=mean signal of […] 100% inhibition of human kallikrein enzyme; HC—high control=mean signal of […]+Z-Gly-Pro-Arg-AMC peptide substrate with DMSO only.
as §1
where Y is the % inhibition in the presence of X inhibitor concentration, Top=high control=mean signal of human kallikrein enzyme+Z-Gly-Pro-Arg-AMC peptide substrate with DMSO only; Bottom=low control−mean signal of no human kallikrein enzyme or 100% inhibition of human kallikrein enzyme; HillSlope—Hill coefficient; and IC50=concentration of compound with 50% inhibition in relation to top/high control.
Representative compounds of formula (I) of the present invention were tested according to the procedure described in Biological Example 1 and Biological Example 2 above, with results as listed in Table 2, below. Results listed in the (ER) column were measured using endpoint reads where a single fluorescence reading was measured for each well at a 30 min timepoint. […]

Sequence of Factor XIa (P03951 388-625 limits assumed): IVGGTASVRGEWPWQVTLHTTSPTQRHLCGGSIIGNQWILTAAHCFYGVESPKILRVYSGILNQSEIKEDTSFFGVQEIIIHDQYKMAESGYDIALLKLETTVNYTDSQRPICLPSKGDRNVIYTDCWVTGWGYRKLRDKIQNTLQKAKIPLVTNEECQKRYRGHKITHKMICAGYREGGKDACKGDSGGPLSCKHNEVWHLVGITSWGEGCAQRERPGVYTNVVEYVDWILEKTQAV
Sequence of Factor XIa (P03951 19-387 partner limits assumed): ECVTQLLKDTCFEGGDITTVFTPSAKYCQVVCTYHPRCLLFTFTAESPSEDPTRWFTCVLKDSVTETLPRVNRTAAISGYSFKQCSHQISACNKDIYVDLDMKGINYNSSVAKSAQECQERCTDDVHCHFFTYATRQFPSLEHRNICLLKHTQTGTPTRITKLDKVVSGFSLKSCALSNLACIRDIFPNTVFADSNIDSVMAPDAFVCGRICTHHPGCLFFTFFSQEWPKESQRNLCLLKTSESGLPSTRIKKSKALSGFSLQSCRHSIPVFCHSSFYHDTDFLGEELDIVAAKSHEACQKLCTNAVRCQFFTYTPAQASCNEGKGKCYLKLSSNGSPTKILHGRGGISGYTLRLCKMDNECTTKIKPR
Sequence of human plasma kallikrein (P03952 391-638 limits assumed): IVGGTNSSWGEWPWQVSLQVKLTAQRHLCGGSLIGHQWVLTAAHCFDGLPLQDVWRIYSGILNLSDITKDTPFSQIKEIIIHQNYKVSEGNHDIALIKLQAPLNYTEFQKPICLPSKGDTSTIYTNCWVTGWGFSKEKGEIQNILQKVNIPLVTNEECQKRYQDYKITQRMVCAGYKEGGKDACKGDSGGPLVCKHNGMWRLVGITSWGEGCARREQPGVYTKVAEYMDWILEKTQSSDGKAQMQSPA
Sequence of human plasma kallikrein (P03952 20-390 partner limits assumed): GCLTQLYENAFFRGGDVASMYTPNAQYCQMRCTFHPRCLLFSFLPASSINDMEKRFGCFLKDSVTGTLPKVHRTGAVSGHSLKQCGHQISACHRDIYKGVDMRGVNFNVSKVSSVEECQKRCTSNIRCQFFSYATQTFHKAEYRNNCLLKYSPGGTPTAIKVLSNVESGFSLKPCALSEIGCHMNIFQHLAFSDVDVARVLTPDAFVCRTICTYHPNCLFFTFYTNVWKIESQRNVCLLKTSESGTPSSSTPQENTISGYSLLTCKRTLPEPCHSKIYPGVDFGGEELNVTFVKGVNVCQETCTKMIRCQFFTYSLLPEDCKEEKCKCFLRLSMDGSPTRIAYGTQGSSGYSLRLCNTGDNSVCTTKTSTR

As for `O=C(Nc1ccc(-c2cnn(C3CCc4cc(-c5c(-n6cnnn6)ccc(Cl)c5F)c[n+]([O-])c43)c2)cc1)C1CC1` (racemic) [ID No. 16, 3-(3-Chloro-2-fluoro-6-(1H-tetrazol-1-yl)phenyl)-7-(4-(4-(cyclopropanecarboxamido)phenyl)-1H-pyrazol-1-yl)-6,7-dihydro-5H-cyclopenta[b]pyridine 1-oxide], the results for the half-inhibitory concentration (IC50) in experiment [1] and in experiment [2] were 25 nM and 316 nM, respectively.
As to `Nc1ccc(-c2cnn(C3CCc4cc(-c5c(-n6cnnn6)ccc(Cl)c5F)c[n+]([O-])c43)c2)c(Cl)n1` (racemic) [ID No. 17, 7-(4-(6-Amino-2-chloropyridin-3-yl)-1H-pyrazol-1-yl)-3-(3-Chloro-2-fluoro-6-(1H-tetrazol-1-yl)phenyl)-6,7-dihydro-5H-cyclopenta[b]pyridine 1-oxide], the IC50 in experiment [1] amounted to 5 nM; in experiment [2], 432 nM.
In the same order, the values of `O=C(NC1CC1)c1ccc(-c2cnn(C3CCc4cc(-c5c(-n6cnnn6)ccc(Cl)c5F)c[n+]([O-])c43)c2)cc1` (racemic) [ID No. 18, 3-(3-Chloro-2-fluoro-6-(1H-tetrazol-1-yl)phenyl)-7-(4-(4-(cyclopropylcarbamoyl)phenyl)-1H-pyrazol-1-yl)-6,7-dihydro-5H-cyclopenta[b]pyridine 1-oxide] are 282 nM and 1090 nM.
For `Cn1ncc(-c2cnn(C3CCc4cc(-c5c(-n6cnnn6)ccc(Cl)c5F)c[n+]([O-])c43)c2)cc1=O` (racemic) [ID No. 19, 3-(3-Chloro-2-fluoro-6-(1H-tetrazol-1-yl)phenyl)-7-(4-(1-methyl-6-oxo-1,6-dihydropyridazin-4-yl)-1H-pyrazol-1-yl)-6,7-dihydro-5H-cyclopenta[b]pyridine 1-oxide] the same measures were 1170 nM and 6360 nM.
With `Cn1c(-c2cnn(C3CCc4cc(-c5c(-n6cnnn6)ccc(Cl)c5F)c[n+]([O-])c43)c2)cccc1=O` (racemic) [ID No. 20, 3-(3-Chloro-2-fluoro-6-(1H-tetrazol-1-yl)phenyl)-7-(4-(1-methyl-6-oxo-1,6-dihydropyridin-2-yl)-1H-pyrazol-1-yl)-6,7-dihydro-5H-cyclopenta[b]pyridine 1-oxide], the results for the IC50 in experiment [1] and in experiment [2] were 3110 nM and over 10000 nM, respectively.
For `Cc1cc(-c2cnn(C3CCc4cc(-c5c(-n6cnnn6)ccc(Cl)c5F)c[n+]([O-])c43)c2)ccn1` (racemic) [ID No. 23, 3-(3-Chloro-2-fluoro-6-(1H-tetrazol-1-yl)phenyl)-7-(4-(2-methylpyridin-4-yl)-1H-pyrazol-1-yl)-6,7-dihydro-5H-cyclopenta[b]pyridine 1-oxide] the same measures were 32 nM and 393 nM.
`[O-][n+]1cc(-c2c(-n3cnnn3)ccc(Cl)c2F)cc2c1C(n1cc(-c3ccnc(C4CC4)c3)cn1)CC2` (racemic) [ID No. 24, 3-(3-Chloro-2-fluoro-6-(1H-tetrazol-1-yl)phenyl)-7-(4-(2-cyclopropylpyridin-4-yl)-1H-pyrazol-1-yl)-6,7-dihydro-5H-cyclopenta[b]pyridine 1-oxide]: the IC50 turned out to be 40 nM in experiment [1] and 70 nM in experiment [2].
For `CC(=O)Nc1ccc(-c2cnn(C3CCCc4cc(-c5c(-n6cnnn6)ccc(Cl)c5F)c[n+]([O-])c43)c2)c(F)n1` (racemic) [ID No. 29, 8-(4-(6-Acetamido-2-fluoropyridin-3-yl)-1H-pyrazol-1-yl)-3-(3-chloro-2-fluoro-6-(1H-tetrazol-1-yl)phenyl)-5,6,7,8-tetrahydroquinoline 1-oxide] the same measures were 765 nM and 8480 nM.
Turning to `Nc1nc(F)c(-c2cnn(C3CCCc4cc(-c5c(-n6cnnn6)ccc(Cl)c5F)c[n+]([O-])c43)c2)cc1Cl` (racemic) [ID No. 30, 8-(4-(6-Amino-5-chloro-2-fluoropyridin-3-yl)-1H-pyrazol-1-yl)-3-(3-chloro-2-fluoro-6-(1H-tetrazol-1-yl)phenyl)-5,6,7,8-tetrahydroquinoline 1-oxide], the values for the IC50 in experiment [1] and in experiment [2] were 1260 nM and 2880 nM, respectively.
On to `Nc1ccc(-c2cnn(C3CCc4cc(-c5c(-n6cnnn6)ccc(Cl)c5F)c[n+]([O-])c43)c2)c(Cl)n1` (single isomer, unassigned) [ID No. 21, (R*)-7-(4-(6-Amino-2-chloropyridin-3-yl)-1H-pyrazol-1-yl)-3-(3-chloro-2-fluoro-6-(1H-tetrazol-1-yl)phenyl)-6,7-dihydro-5H-cyclopenta[b]pyridine 1-oxide], for which the concentration for half-maximal inhibition (IC50) is 2380 nM in experiment [1] and over 10000 nM in experiment [2].
For `Nc1ccc(-c2cnn(C3CCc4cc(-c5c(-n6cnnn6)ccc(Cl)c5F)c[n+]([O-])c43)c2)c(Cl)n1` (single isomer, unassigned) [ID No. 22, (S*)-7-(4-(6-Amino-2-chloropyridin-3-yl)-1H-pyrazol-1-yl)-3-(3-chloro-2-fluoro-6-(1H-tetrazol-1-yl)phenyl)-6,7-dihydro-5H-cyclopenta[b]pyridine 1-oxide], the concentration for half-maximal inhibition (IC50) came out at 3 nM in experiment [1] and 176 nM in experiment [2].

As a reminder, the IC50 is the concentration at which inhibition is half-maximal.
